The values that follow come from article PMC10102062, “Effects of DPTQ, a novel positive allosteric modulator of the dopamine D1 receptor, on spontaneous eye blink rate and spatial working memory in the nonhuman primate” (Psychopharmacology, 2023).

Series [1] deals with rhesus monkey. The series is described as follows: Spatial delayed response working memory task. It is filed as in vivo, rhesus and one stumptail macaque. As to conditions: for Delay-dependent errors: 0.1 mg/kg; for Delay-dependent errors at short delays: 1.0 mg/kg. The protocol:
Sixteen rhesus and one stumptail macaque participated in the study (details provided below) that was performed at Yale University, New Haven CT, USA. Animals were used and cared for in full accordance with Yale University’s IACUC guidelines and polices in addition to all U.S. Federal policies and regulations. The monkeys were fed their normal diet each day, including appropriately nutritional biscuits and multiple fruits and vegetables for enrichment. Testing and any training occurred just before their main food course. This food consisted of biscuits, delivered each day, and all animals had full 24-h access to ad libitum water. Participation in cognitive testing was ensured by the enrichment of the environmental stimulation and the provision of the animals’ favorite food treats as rewards in the task, including yoghurt, raisins, almonds, grapes, fruit loops, and multiple other food items (Roberts et al [2010]).
The circuitry involved in this response is almost exclusively “dorsal stream” involving dorsolateral prefrontal cortex, particularly Area 46, and the lateral intraparietal sulcus (Goldman-Rakic [1996]). For a full description of the task used here, see Roberts et al. ([2010]). Animals were tested in a sound-attenuated room incorporating a testing chamber. In this task one of several well locations is baited with food in view of the animal and the wells are then covered with identical plaques. An opaque shutter is then lowered for one of 5 variable delays and then raised to allow the animal to make a response to one of the well locations to retrieve the food. Each delay length was repeated 4 times in a semirandom distribution across the 20 trials in each testing session. Each animal was stabilized prior to commencing any administration by gradually incrementing the number of wells (starting at just 2) and the lengths of the delay. The 5 variable delay lengths were set at 0, 1, 2, 3, and 4 s multiplied by a factor “N.” Thus, N was incremented by 1 up to a maximum of 10 until the subject performed at 80% or more across 3 consecutive test sessions whereupon the number of wells was incremented by 1. This process was repeated for each individual until they reached stable performance (65–75% ± ≤ 2.5% correct). This normalized level of performance allows for the sensitive detection of any impairment or improvement produced by experimental conditions. For baseline data for this study, we took 7 or more consecutive data points that had been collected in previous weeks which fell within the stable limits for the test. For the total group of 17 animals participating in this study, the median well number was 4 (range 2–7) and the median N value was 3 (range 1–7). Animals were typically tested 2 to 3 days a week.
DPTQ (free base, Eli Lilly & Co.) was prepared as described above for the spontaneous eye blink test. Animals (4 males and 6 females, mean age = 22.1 ± 1.7 years) were originally assigned to receive either vehicle or DPTQ 2.5 mg/kg IM in a semi-random design. One animal received vehicle but was not dosed with DPTQ. This same group of animals was later used in a repeated dosing study with DPTQ 2.5 mg/kg vs vehicle. After a protracted washout period of several months we tested the lower doses of 0.1 mg/kg and 1.0 mg/kg in ascending order. This group of 10 animals included 3 from the previous study (3 males, 7 females (including one aged stumptail macaque); average age = 22.6 ± 1.7 years). The youngest animal in this study was aged 17.3 years. None of the animals were naïve and had all been used in previous studies with other compounds. They were given an extensive washout of weeks or months prior to this study and were established to have normal baseline performance on the task. During the study, animals were washed out based on known PK properties (half-life) of this drug as well as the baseline performance of each individual animal. […]

On the set-up of series [2]: method as in Hao et al. [2019]. The conditions noted are these: after systemic dosing; ref Hao et al. [2019]; cited from earlier work.

For `C[C@H]1c2cccc(CC(C)(C)O)c2C[C@H](CO)N1C(=O)Cc1c(Cl)cccc1Cl` [DPTQ], the “Working memory performance over 2 weeks” value in series [1] (0.1 mg/kg IM, n = 10, no diminution on day 3, p = 0.014) is given as “modest enhancement of working memory”; in series [1] (1.0 mg/kg IM, n = 8, p = 0.006, strongest day 4 p < 0.0001), “significant improvement in working memory”. Further, the Delay-dependent errors result in series [1] (day 1, short (0, 1) N and long (3, 4) N delays) is reported as “slight increase in errors”; in series [1] (day 5, particularly long delays), “small but non-significant decrease in errors”. Moreover, the “Delay-dependent errors at short delays” value was “no reduction in errors” in series [1] (day 1) and “reduction” in series [1] (day 5). The “Working memory performance day 3” value in series [1] (2.5 mg/kg IM on days 1 and 5, n = 6) is recorded as “non-significant dip”. In series [1] (2.5 mg/kg IM on days 1 and 5, day after repeat dose), the “Working memory performance day 6” value is on record as “reduction in performance to baseline”. Also, the “Working memory performance days 8-14” value in series [1] (2.5 mg/kg IM on days 1 and 5, days 8, 12 p < 0.05, days 10, 14 p < 0.01) is given as “enhancement”. Besides, the “Working memory performance days 4 and 5” value in series [1] (2.5 mg/kg IM on days 1 and 5, p < 0.01) is reported as “rebound enhancement”. Also, the “Working memory performance, acute effect” value in series [1] (2.5 mg/kg IM single dose, day 1, 1 h post injection, n = 9) is recorded as “No immediate acute effect”. Besides, the Diminution of performance in series [1] (2.5 mg/kg IM single dose, day 2) is reported as 10%. Besides, the Mean performance score in series [1] (2.5 mg/kg IM single dose, day 3, p = 0.025 vs baseline, baseline 65–75% correct) is given as 61.1; in series [1] (2.5 mg/kg IM single dose, day 4, improvement days 4, 5, 6 p < 0.01) it was 84.3. The “Working memory deficit on day 3” value in series [1] (2.5 mg/kg day 1, vehicle day 5, n = 10, p = 0.278 vs baseline) was “small and did not achieve significance”. Besides, in series [1] (2.5 mg/kg day 1, vehicle day 5, days 4, 8 p < 0.001, day 5 p < 0.0001, days 10, 12 p < 0.05), the “Working memory performance days 4-12” value is given as “enhancement”. In addition, the “Dose range over which procognitive effects were observed” value in series [1] (0.1 to 2.5 mg/kg IM) was “at least 25 fold”. The “Acute effect on spatial working memory” value in series [1] (1 h after injection, regardless of the dose administered) is recorded as “entirely null acute effect”. Also, in series [1] (day 3, p < 0.01, p < 0.05 respectively), the “Score on day 3 at 0.1 and 1.0 mg/kg compared with 2.5 mg/kg” value was “significantly higher score”. In addition, in series [1] (day 4), the “Score on day 4 at 2.5 mg/kg compared with 0.1 mg/kg” value is listed as “significantly greater”. Further, the “Difference in scores attributable to dose” value in series [1] (day 5, 0.1, 1.0, 2.5 mg/kg) is on record as “No difference”. For the same compound, the Brain penetration entry in series [2] is “acceptable brain penetration”.
